Data published in patent publication US10800776B2, “Fluorine-containing triazolopyridine, and manufacturing method, pharmaceutical composition, and application thereof” (SHANGHAI INSTITUTE OF MATERIA MEDICA, CHINESE ACADEMY OF …, priority 2016, dated 2020).

Legend:
[1] = test system: ICR mice; assay: Mouse swimming depression test; format: in vivo; conditions: for non-movement time (%) Mean ± SEM: orally, 1 hour before test
Protocol: Experiment objectives: to observe the effect of the test compound on the depressive status of mice
Experimental animals: ICR mice, 20-28 g, both male and female
Experimental equipment: plexiglass tube: cylindrical, 25 cm high, 15 cm inner diameter
Sample treatment: The test compounds were ground with 1% CMC (sodium carboxymethyl cellulose) to prepare a homogeneous solution. In vivo dose was 5 mg/kg, 10 mg/kg and 20 mg/kg, the compound was orally administrated at 0.1 ml/10 g volume/body weight. Positive control drugs (amitriptyline and fluoxetine) were dissolved with 0.9% saline, in vivo dose was 10 mg/kg, intraperitoneal injected at 0.1 ml/10 g volume/body weight. (Note: mice were given the compound after fasted for 8 hours without water-fasted.)
Experimental principle: The mouse is placed in a limited space which can not escape to swim, thus inducing animals to non-movement state which reflects the animal's desperate behavior.
Experimental Methods: mice were grouped randomly, 15 minutes swimming depression was modeled at the first day, and equivalent mice were selected. The second day of the test, 1 hour after the animals were orally administered the compound (0.5 hours after intraperitoneal injection) and then the animals were put in water to record the non-movement time in the later 4 min of 6 min.

[2] = test system: C57BL/6 mice; assay: Mouse open field experiment; format: in vivo; conditions: for Central area dwell time (s) Mean ± SEM / Central area traveling distance percentage (%) Mean ± SEM / Total moving distance (cm) Mean ± SEM: 30 mg/kg i.p., 1 hour before, 30-minute test
Protocol: Experiment objectives: to observe the anti-anxiety effect of the test compound on the mice by open field experiment.
Experimental animals: male C57BL/6 mice, 10 weeks old, purchased from Beijing Huafukang Biotechnology Co., Ltd.
Animal rearing: The temperature in the animal room was maintained at 20-25° C., the humidity was maintained at 40-70%, and the photoperiod was 12 hours light and 12 hours dark. During feeding, the mice were housed in standard mouse cages, with colored labels on each cage clearly indicating the item number, and the basic information such as the responsible person, group, animal number and animal gender. All animals were given free access to pure water and standard certified rodent feed. Before the start of the experiment, the experimental animals were adapted to the feeding environment for at least one week.
The compound to be tested, intraperitoneally administered, 30 mg/kg.
Experimental principle: Based on the instincts of rodents tending to avoid light and fear of exploring open fields. When the experimental animals were first placed in the open field, the central area was a potential threat to the animals, while the peripheral area was relatively safe, and rats and mice were more likely to move along the perimeter of the field. Therefore, if the animal is of high anxiety level, it tends to stay in the peripheral area. Conversely, the number and time of exploration in the central area will increase.
Experimental grouping and administration: Experimental animals were randomly divided into 5 groups as follows:
During the 30-minute test period, the total distance traveled by the experimental animals, the central area dwell time, and the percentage of the central area travel distance will be detected and recorded.

[3] = target: mGluR2 (Homo sapiens (Human), UniProt Q14416); assay: In vitro activity test for mGluR2 (HDB Fluo-8 calcium fluorescence, HEK/mGluR2 cell line); format: cell-based
Chain of mGluR2 (Q14416 19-872): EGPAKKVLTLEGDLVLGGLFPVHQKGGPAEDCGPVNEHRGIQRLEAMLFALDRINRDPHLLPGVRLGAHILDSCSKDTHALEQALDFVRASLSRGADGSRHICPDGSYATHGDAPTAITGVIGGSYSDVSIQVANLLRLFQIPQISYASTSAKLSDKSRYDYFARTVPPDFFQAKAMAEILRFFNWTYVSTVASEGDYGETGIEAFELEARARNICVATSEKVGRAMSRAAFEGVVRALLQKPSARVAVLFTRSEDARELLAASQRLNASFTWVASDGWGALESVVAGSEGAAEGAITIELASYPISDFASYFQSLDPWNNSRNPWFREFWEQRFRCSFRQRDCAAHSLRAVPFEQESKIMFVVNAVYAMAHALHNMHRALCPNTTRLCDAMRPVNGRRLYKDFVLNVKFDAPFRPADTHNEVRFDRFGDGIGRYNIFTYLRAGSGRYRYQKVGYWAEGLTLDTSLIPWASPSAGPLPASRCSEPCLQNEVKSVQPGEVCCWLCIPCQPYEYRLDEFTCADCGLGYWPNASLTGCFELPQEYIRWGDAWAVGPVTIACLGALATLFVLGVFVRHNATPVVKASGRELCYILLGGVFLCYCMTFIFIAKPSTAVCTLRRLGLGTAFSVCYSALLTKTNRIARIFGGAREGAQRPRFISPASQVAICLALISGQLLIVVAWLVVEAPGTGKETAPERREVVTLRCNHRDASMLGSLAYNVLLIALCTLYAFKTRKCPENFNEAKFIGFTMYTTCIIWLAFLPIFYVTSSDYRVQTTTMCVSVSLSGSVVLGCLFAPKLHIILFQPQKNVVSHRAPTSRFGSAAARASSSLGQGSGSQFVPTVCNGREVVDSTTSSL
Excerpt: Experimental materials: HEK/mGluR2 cell line (human […] transfected HEK cell line), DMEM (FBS) medium, positive control LY487379 (purchased from sigma; CAS: to 352317-17-1)
Experimental instrument: FLIPR Tetra real-time fluorescence imaging analysis system
Experimental method: HDB Fluo-8 calcium fluorescence detection method
Experimental principle: HDB Fluo-8 calcium ion fluorescence detection method is a fast, simple and reliable fluorescence detection method of intracellular calcium concentration changes. The Fluo 8-AM fluorescent dye is an acetyl methyl ester derivative of Fluo 8 which can easily penetrate into the cell membrane by culture. The fluorescent dye in the cell will be hydrolyzed by intracellular esterase, the resulting Fluo 8 as a polar molecule, cannot easily pass through the lipid bimolecular membrane, and will be retained in the cell, and combine with calcium (Ca^2+) to produce fluoresces.
Cells expressing GPCR receptor protein (mGluR2) were first calibrated with a calcium ion sensitive fluorescent probe and then stimulated with the compound. After stimulation, the receptor activates the calcium ion mobilization, and the fluorescent probe captures the calcium ion to induce the fluorescence signal. The signal can be read by a fluoroscopy plate. The fluorescent plate reader contains a sample addition for compound addition, thus enabling the change of the fluorescence value of the compound be read in real time.

Compound: COC(=O)c1ccc(-c2ccn3c(CC4CC4(F)F)nnc3c2Cl)c(F)c1 (centres unmarked) [Compound 45, Methyl 4-(8-Chloro-3-((2,2-difluorocyclopropyl)methyl)-[1,2,4]triazole[4,3-a]pyridin-7-yl)-3-fluorobenzoate]
- non-movement time (%) Mean ± SEM ([1]; 5 mg/kg): 63.99 ± 11.00%
- non-movement time (%) Mean ± SEM ([1]; 10 mg/kg): 34.88 ± 6.57%
- non-movement time (%) Mean ± SEM ([1]; 20 mg/kg): 56.29 ± 17.56%
- "no movement time" of swimming in mice (in words) ([1]; mouse, in vivo): effectively shorten
- antidepressant effect ([1]; mouse, in vivo): significant antidepressant effect
- Central area dwell time (s) Mean ± SEM [2]: 110 ± 13.0 s
- Central area traveling distance percentage (%) Mean ± SEM [2]: 19.39 ± 1.63 %
- Total moving distance (cm) Mean ± SEM [2]: 5043.2 ± 457.5 cm
- central region's range of motion ([2]; dosage of 30 mg/kg): significantly increase
- EC50 [3]: 0.0879 µM

Compound: FC1(F)CC1Cc1nnc2c(Cl)c(-c3ccc4c(c3)OCO4)ccn12 (centres unmarked) [Compound 50, 7-(Benzo[d][1,3]dioxol-5-yl)-8-chloro-3-((2,2-difluorocyclopropyl)methyl)-[1,2,4]triazole [4,3-a]pyridine]
- non-movement time (%) Mean ± SEM ([1]; 5 mg/kg): 84.06 ± 10.65%
- non-movement time (%) Mean ± SEM ([1]; 10 mg/kg): 52.10 ± 15.86%
- non-movement time (%) Mean ± SEM ([1]; 20 mg/kg): 57.08 ± 17.80%
- Central area dwell time (s) Mean ± SEM [2]: 81.1 ± 10.2 s
- Central area traveling distance percentage (%) Mean ± SEM [2]: 13.91 ± 0.96%
- Total moving distance (cm) Mean ± SEM [2]: 4407.2 ± 390.5 cm
- EC50 [3]: 0.0623 µM
